Data on 28 compounds can be found in US11242346B2, “Mechanistic target of rapamycin signaling pathway inhibitors and therapeutic applications thereof” (SUZHOU KINTOR PHARMACEUTICALS, INC., priority 2016, dated 2022).

For data set [1], the target named is mTOR (FRAP1) (Homo sapiens, UniProt P42345). Put plainly: SelectScreen Profiling, Z'-LYTE kinase assay, mTOR (FRAP1). It is filed as biochemical. The settings on record: 0.1 μM compound, ATP at Km, read-out: mTOR inh% @0.1 μM. The text has this: (§1) Some of the example compounds were submitted to Life Technologies Corporation SelectScreen® Profiling Service to test their potency in inhibiting the kinase catalytic activities of mTOR, PI3Kα, VEGF2, FGFR1, HER1 (EGFR) and HER2. A concentration of ATP at the Km of the corresponding kinase was used for all assays. The mTOR (FRAP1), VEGF2, FGFR1, HER1 (EGFR) and HER2 assays used Z′-LYTE® technology. The PI3Kα assay used Adapta® technology. The symbol “inh %” as used herein generally refers to inhibition percentage.

Data set [2] is described as follows: Metabolic stability in human liver microsome (HLM). It is filed as in vitro ADME. The settings on record: incubation with human liver microsome for 60 min. Here is the method: (§2) Active mTOR inhibitors in enzymatic and/or cell-based assays herein were evaluated for pharmacokinetic properties. Preferable compounds are with pharmacokinetic properties of low clearance, long half-life and/or good oral bioavailability (Fpo). In vitro, selected example compounds were evaluated for metabolic stability by incubating with human liver microsome (HLM) for 60 min. Compounds that were metabolized slower (i.e. higher % remaining) are preferred. […] The more metabolic stable example compounds in the HLM assay were further evaluated for pharmacokinetic properties in vivo. In a representative experiment, selected example compounds were dosed to rats intravenously (IV, 5 mg/kg, 30% PEG400+30% PG+1% DMSO in saline) and orally (PO, 10 mg/kg, 2.4% DMSO+0.1% Tween80 in 0.5% CMC-Na), rat blood samples were taken at designed time points after dosing and analyzed for tested drug concentrations using LC-MS/MS. Pharmacokinetic parameters were derived from the time curve of drug concentrations.

Data set [3] can be described thus: Rat pharmacokinetic study (IV and PO). It is filed as in vivo. Particulars: for AUC(0-t) / Cmax / MRT / clearance / half-life / Tmax / bioavailability: blood; for bioavailability: PO 10 mg/kg vs IV 5 mg/kg, read-out: Fpo (oral bioavailability). Here is the method:
as §2

In data set [4] the test system is mammalian tumor cell lines such as PC-3, LNCAP, U87, Huh-7, HepG2 and MDA-MB-468. Put plainly: Cell proliferation/survival MTT assay in tumor cell lines. In kind it is cell-based. Particulars: 5 days (120 h) culture; cell line not specified; read-out: IC50, inhibition of tumor cell growth (MTT). The procedure: The cytotoxic or cytostatic activity of Formula I-III exemplary compounds was measured by establishing proliferating mammalian tumor cell lines such as PC-3, LNCAP, U87, Huh-7, HepG2 and MDA-MB-468 in a cell culture medium, adding a test compound, culturing the cells for a period of 5 days by measuring cell viability via MTT assays. Dose response data were obtained for each test compound and the degree of inhibition of tumor cell growth was expressed as an IC50 value. […] For example. For example, compounds of example 14, 15, 46,29, 45, 49, 122, 88, 54, 55, 58, 59, 63, 64, 66, 67, 68, 113, 86, 90.
PC-3 (or U87) cells were seeded in 96-well plates at low density (at 2,000 cells per well) in media supplemented with 10% FBS (growth media) and transferred to serum-free media (1% FBS) after 24 h. Designated concentrations of drug were added to each well. The cells were incubated for 120 h. At the end of drug exposure, 20 μL/well of MTT solution was added. After 4 h at 37° C. in a humidified 5% CO2 atmosphere, the absorbance at 490 nm was recorded by using a microplate reader. IC50 was calculated using GraphPad Prism version 5 for Windows. The curves were fit using a nonlinear regression model with a log (inhibitor) versus response formula.

Data set [5] concerns the target FGFR1 (Homo sapiens, UniProt P11362). Put plainly: SelectScreen Profiling, Z'-LYTE kinase assay, FGFR1. The settings on record: 1 μM compound, ATP at Km, read-out: FGFR 1 inh % @1 μM. It is filed as biochemical.
Text: as §1

The target of data set [6] is VEGF2 (Homo sapiens, UniProt P35968). Put plainly: SelectScreen Profiling, Z'-LYTE kinase assay, VEGF2. In kind it is biochemical. The settings on record: 1 μM compound, ATP at Km, read-out: VEGF 2 inh % @1 μM.
Text: as §1

Data set [7] deals with HER1 (EGFR) (Homo sapiens, UniProt P00533). Put plainly: SelectScreen Profiling, Z'-LYTE kinase assay, HER1 (EGFR). It is filed as biochemical. Particulars: 1 μM compound, ATP at Km, read-out: HER1 inh % @1 μM.
Text: as §1

Data set [8] has as its target HER2 (Homo sapiens, UniProt P04626). Put plainly: SelectScreen Profiling, Z'-LYTE kinase assay, HER2. Particulars: 1 μM compound, ATP at Km, read-out: HER2 inh % @1 μM. It is filed as biochemical.
Text: as §1

Data set [9] concerns the target PI3Kα (Homo sapiens, UniProt P42336). Put plainly: SelectScreen Profiling, Adapta kinase assay, PI3Kα. It is filed as biochemical. Particulars: 0.1 μM compound, ATP at Km, read-out: PI3Kα inh % @0.1 μM.

Sequence of HER1 (EGFR) (P00533 25-1210): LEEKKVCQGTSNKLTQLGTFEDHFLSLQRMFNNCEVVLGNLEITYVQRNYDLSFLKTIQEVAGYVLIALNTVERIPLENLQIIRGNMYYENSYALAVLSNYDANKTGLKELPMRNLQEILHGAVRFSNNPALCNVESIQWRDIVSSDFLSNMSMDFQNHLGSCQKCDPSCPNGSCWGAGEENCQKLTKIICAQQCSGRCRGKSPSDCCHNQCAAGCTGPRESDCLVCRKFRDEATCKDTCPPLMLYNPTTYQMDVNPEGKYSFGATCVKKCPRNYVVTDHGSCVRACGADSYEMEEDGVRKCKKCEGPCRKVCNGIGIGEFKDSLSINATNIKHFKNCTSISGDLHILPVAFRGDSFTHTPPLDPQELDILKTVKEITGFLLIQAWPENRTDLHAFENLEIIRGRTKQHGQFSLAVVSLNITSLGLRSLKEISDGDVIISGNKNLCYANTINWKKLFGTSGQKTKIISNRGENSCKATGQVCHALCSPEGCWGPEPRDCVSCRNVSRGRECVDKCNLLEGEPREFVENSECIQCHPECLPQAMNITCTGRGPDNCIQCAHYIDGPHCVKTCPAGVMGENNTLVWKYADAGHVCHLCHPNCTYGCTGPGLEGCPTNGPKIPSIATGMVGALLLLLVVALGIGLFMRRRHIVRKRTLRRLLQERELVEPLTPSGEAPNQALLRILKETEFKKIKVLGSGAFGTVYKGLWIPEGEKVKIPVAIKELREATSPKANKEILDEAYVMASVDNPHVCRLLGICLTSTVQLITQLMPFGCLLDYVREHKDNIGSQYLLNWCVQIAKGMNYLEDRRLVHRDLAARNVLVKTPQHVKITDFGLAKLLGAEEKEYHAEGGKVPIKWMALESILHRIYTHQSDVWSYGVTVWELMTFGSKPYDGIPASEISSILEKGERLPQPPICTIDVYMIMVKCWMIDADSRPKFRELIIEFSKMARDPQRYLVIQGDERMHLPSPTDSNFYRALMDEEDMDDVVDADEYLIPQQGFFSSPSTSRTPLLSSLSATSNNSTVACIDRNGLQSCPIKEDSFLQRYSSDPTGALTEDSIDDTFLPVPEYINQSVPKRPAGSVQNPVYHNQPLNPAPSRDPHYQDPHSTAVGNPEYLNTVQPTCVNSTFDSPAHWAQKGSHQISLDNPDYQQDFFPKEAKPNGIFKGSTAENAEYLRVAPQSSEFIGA
Sequence of HER2 (P04626 23-1255): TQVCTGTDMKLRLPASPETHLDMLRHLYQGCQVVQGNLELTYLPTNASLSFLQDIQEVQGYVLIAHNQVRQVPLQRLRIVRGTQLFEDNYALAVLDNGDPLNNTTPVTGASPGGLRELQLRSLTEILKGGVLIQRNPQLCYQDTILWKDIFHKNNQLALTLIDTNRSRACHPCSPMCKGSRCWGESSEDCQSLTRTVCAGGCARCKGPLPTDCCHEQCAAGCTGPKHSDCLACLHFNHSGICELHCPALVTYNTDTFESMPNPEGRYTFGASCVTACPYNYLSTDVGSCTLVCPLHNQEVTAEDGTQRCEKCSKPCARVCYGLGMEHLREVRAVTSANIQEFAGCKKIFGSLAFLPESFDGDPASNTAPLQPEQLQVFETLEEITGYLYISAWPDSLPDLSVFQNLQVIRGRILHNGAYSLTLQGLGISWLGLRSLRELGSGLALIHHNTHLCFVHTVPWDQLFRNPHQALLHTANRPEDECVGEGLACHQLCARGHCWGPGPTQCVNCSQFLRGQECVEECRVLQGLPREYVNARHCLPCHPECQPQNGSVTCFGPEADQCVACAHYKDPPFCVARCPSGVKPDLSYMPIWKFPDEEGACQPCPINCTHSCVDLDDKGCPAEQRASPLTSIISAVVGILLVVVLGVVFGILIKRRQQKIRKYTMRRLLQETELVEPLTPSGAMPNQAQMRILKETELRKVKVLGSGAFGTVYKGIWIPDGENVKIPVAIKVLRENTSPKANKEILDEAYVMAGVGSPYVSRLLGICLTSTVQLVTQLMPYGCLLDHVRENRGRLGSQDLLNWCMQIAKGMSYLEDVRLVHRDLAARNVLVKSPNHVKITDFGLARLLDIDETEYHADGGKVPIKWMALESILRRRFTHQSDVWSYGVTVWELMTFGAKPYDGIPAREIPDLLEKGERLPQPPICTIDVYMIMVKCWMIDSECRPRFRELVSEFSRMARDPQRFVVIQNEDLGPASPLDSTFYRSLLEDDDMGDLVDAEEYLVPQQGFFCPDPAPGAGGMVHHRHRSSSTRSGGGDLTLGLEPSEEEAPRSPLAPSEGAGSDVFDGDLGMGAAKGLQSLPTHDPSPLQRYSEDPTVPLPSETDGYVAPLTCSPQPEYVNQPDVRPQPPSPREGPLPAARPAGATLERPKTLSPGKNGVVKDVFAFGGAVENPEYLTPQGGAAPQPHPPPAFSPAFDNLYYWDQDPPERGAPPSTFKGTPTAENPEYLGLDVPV
Sequence of PI3Kα (P42336 whole entry): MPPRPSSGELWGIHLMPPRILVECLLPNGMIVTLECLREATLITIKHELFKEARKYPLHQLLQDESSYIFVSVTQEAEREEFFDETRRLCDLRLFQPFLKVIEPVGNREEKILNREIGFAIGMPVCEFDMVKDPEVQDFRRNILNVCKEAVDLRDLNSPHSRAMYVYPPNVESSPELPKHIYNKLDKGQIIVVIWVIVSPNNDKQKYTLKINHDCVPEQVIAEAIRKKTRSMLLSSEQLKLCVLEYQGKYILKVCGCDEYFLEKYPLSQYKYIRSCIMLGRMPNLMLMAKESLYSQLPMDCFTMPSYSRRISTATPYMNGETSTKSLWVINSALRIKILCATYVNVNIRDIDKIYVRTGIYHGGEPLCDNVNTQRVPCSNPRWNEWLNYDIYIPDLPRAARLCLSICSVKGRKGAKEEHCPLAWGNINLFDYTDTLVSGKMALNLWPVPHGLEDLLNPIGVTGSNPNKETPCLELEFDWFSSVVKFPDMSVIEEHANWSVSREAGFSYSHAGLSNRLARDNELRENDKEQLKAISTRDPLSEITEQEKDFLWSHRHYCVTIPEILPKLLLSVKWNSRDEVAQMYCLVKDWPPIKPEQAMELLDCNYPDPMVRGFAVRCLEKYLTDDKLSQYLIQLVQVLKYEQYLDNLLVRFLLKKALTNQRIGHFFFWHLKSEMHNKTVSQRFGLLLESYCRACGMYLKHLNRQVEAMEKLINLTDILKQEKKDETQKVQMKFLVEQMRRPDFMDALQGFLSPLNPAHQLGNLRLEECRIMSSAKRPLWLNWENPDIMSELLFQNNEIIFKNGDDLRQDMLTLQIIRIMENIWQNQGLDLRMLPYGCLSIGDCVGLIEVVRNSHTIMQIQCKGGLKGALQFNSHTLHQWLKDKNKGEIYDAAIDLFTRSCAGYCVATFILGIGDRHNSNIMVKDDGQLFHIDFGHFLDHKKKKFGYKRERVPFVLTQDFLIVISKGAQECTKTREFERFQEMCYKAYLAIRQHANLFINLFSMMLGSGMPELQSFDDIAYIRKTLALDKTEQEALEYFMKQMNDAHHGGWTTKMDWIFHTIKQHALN
Sequence of PI3Kα (P27986 whole entry partner): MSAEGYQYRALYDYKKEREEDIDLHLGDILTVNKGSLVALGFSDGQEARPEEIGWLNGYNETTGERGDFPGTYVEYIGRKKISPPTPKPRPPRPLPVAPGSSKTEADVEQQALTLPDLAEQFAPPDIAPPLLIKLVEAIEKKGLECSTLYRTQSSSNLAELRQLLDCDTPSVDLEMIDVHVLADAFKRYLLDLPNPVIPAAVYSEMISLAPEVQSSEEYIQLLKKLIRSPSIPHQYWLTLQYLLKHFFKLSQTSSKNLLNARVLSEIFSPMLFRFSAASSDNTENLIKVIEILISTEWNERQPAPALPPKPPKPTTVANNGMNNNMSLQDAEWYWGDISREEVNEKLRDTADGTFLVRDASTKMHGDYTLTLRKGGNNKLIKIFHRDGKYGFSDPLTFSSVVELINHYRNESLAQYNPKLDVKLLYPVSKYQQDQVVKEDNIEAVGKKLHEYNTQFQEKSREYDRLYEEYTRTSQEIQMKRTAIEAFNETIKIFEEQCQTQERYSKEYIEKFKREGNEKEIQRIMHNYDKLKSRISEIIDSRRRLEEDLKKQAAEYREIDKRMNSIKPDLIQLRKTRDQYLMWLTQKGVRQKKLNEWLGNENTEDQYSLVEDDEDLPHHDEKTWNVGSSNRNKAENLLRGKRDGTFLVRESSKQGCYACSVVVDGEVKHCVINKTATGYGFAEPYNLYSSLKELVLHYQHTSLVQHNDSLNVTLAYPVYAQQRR
Sequence of FGFR1 (P11362 22-822): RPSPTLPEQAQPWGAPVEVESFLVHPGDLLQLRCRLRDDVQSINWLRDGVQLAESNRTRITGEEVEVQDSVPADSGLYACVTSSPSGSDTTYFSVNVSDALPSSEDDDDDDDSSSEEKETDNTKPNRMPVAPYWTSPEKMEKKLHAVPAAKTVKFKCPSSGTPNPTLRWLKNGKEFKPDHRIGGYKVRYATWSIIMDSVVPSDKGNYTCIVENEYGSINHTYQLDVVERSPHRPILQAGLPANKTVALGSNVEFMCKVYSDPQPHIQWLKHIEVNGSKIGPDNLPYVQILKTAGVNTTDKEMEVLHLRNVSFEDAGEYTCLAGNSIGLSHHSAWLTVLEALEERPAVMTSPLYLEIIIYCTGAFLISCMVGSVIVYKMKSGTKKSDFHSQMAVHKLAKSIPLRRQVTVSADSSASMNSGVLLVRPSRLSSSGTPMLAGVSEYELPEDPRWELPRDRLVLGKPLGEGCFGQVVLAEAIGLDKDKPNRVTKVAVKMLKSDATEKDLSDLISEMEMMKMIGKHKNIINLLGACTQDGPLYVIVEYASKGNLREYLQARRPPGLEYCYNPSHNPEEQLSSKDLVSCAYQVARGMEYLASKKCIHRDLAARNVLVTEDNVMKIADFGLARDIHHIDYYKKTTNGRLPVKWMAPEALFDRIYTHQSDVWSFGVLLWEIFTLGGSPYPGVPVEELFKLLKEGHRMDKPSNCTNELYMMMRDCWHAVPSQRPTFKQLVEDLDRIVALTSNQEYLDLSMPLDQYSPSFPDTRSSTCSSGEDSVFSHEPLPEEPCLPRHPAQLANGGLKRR

`CNC(=O)c1ccc(NC(=O)Nc2ccc(-c3nc(N4CCOCC4)c4cccn4n3)cc2)cc1F` [Example 61]: the inhibition at 0.1 µM in data set [1] came to 71%.

With `O=C(NCCO)Nc1ccc(-c2nc(N3C[C@H]4CC[C@@H](C3)O4)c3cccn3n2)cc1` [Example 127], the “metabolic stability in HLM” value in data set [2] is on record as “metabolically stable”. In data set [3] (PO 10 mg/kg), the CL amounted to 112.9 mL/min/kg, the area under the curve AUC(0-t) was 1400 ng·h/mL, the Cmax was 296 ng/mL and the mean residence time MRT is 5.11 h. In addition, in [3] (PO 10 mg/kg), the Tmax came to 0.417 h and the half-life was 3.29 h. In data set [3] (IV 5 mg/kg), this compound gave an exposure AUC(0-t) of 3420 ng·h/mL, a peak concentration (Cmax) of 3380 ng/mL, a mean residence time (MRT) of 1.3 h and a clearance of 24.4 mL/min/kg. In data set [3] (IV 5 mg/kg), the half-life is 1.47 h. The bioavailability in data set [3] was 22%.

On to `CN(C)[C@@H]1CCN(C(=O)c2ccc(NC(=O)Nc3ccc(-c4nc(N5CCOCC5)c5cccn5n4)cc3)cc2)C1` [Example 58], for which the inhibition at 0.1 µM in data set [1] was 97%. The IC50 in data set [4] is under 0.5 µM. The inhibition at 1 µM in data set [5] was 4%; in data set [6], 10%; in [7], 1%; in data set [8], -5%.

`CN(C)C1CCN(C(=O)c2ccc(NC(=O)Nc3ccc(-c4nc(N5CCOCC5)c5ccc(C(C)(C)O)n5n4)cc3)cc2)CC1` [Example 90]: in data set [4], the half-inhibitory concentration (IC50) is under 0.5 µM.

Take `CS(=O)(=O)N1CCN(Cc2cc3nc(-c4cccc5[nH]ncc45)nc(N4CCOCC4)c3s2)CC1` [GDC0941, reference compound]: the inhibition at 0.1 µM in data set [1] stood at 6%.

In the case of `CN1CCN(CCNC(=O)c2ccc(NC(=O)Nc3ccc(-c4nc(N5CCOCC5)c5cccn5n4)cc3)cc2)CC1` [Example 49], the inhibition at 0.1 µM in [1] stood at 88%. Besides, the IC50 in data set [4] is under 0.5 µM.

Regarding `C[C@@H]1COCCN1c1nc(-c2ccc(NC(=O)Nc3cccnc3)cc2)nn2cccc12` [Example 17], the inhibition at 0.1 µM in data set [9] was 25%.

Regarding `O=C(Nc1ccc(-c2nc(N3CCOCC3)c3ccc(C(F)(F)F)n3n2)cc1)Nc1cccnc1` [Example 62], the figures for the inhibition at 0.1 µM in [1] and in data set [9] were 53% and 10%, respectively.

On to `O=C(Nc1ccc(C(=O)NCCN2CCOCC2)cc1)Nc1ccc(-c2nc(N3CCOCC3)c3cccn3n2)cc1` [Example 48], for which the inhibition at 0.1 µM in data set [1] was 69%; in data set [9] it was -15%.

Consider `CN1CCN(C(=O)c2ccc(NC(=O)Nc3ccc(-c4nc(N5CCOCC5)c5ccc(C(F)(F)F)n5n4)cc3)cc2)CC1` [Example 65], for which the inhibition at 0.1 µM worked out at 63% in data set [1] and 19% in [9].

Regarding `O=C(Nc1ccc(C(=O)N2CCNCC2)cc1)Nc1ccc(-c2nc(N3CCOCC3)c3cccn3n2)cc1` [Example 56], the inhibition at 0.1 µM in [1] is 88%. In data set [2], the “metabolic stability in HLM” value is “metabolically stable”.

In data set [3] (PO 10 mg/kg), `CC(C)(C)C(=O)OCCNC(=O)Nc1ccc(-c2nc(N3CCOCC3)c3cccn3n2)cc1` [Example 128] had a CL of 25.05 mL/min/kg, an AUC(0-t) of 7290 ng·h/mL, a Cmax of 1520 ng/mL and a mean residence time MRT of 3.45 h. In data set [3] (PO 10 mg/kg), the Tmax is 1.67 h and the half-life is 1.9 h. In data set [3], the bioavailability was found to be 22%.

For `CCNC(=O)Nc1ccc(-c2nc(N3CCOC[C@H]3C)c3cccn3n2)cc1` [Example 4], the inhibition at 0.1 µM in data set [1] is 72%; in data set [9], 10%.

`C[C@@H](CO)NC(=O)Nc1ccc(-c2nc(N3CCOCC3)c3cccn3n2)cc1` [Example 52]: the values for the inhibition at 0.1 µM in data set [1] and in [9] were 74% and 6%, respectively.

With `O=C(Nc1ccc(C(=O)N2CC[C@H](O)C2)cc1)Nc1ccc(-c2nc(N3CCOCC3)c3cccn3n2)cc1` [Example 68], the inhibition at 0.1 µM in [1] amounted to 86%. In addition, the concentration for half-maximal inhibition (IC50) in [4] was under 0.5 µM.

Turning to `CN(C)C1CCN(C(=O)c2ccc(NC(=O)Nc3ccc(-c4nc(N5CCOCC5)c5ccc(C(F)(F)F)n5n4)cc3)cc2)CC1` [Example 64], in data set [1], the inhibition at 0.1 µM was found to be 62%. Further, the “metabolic stability in HLM” value in data set [2] is recorded as “metabolically stable”. Further, the IC50 in data set [4] is under 0.5 µM.

Turning to `CC(C)(C)C(=O)OCCNC(=O)Nc1ccc(-c2nc(N3C[C@H]4CC[C@@H](C3)O4)c3cccn3n2)cc1` [Example 133], the inhibition at 0.1 µM in [1] came to 90%. The inhibition at 1 µM was 4% in data set [5], 9% in data set [6], 1% in [7] and 5% in data set [8].

In the case of `O=C(Nc1ccc(C(=O)N2CC[C@@H](O)C2)cc1)Nc1ccc(-c2nc(N3CCOCC3)c3cccn3n2)cc1` [Example 67], the inhibition at 0.1 µM in data set [1] is 87%. Further, in data set [2], the “metabolic stability in HLM” value was “metabolically stable”. Moreover, the 50% inhibitory concentration (IC50) in data set [4] was under 0.5 µM.

Consider `S=C(Nc1ccc(-c2nc(N3CCOCC3)c3cccn3n2)cc1)Nc1cccnc1` [Example 106], for which the “metabolic stability in HLM” value in data set [2] was “metabolically stable”. Moreover, in data set [3] (PO 10 mg/kg), the CL turned out to be 4.12 mL/min/kg, the exposure AUC(0-t) turned out to be 73400 ng·h/mL, the Cmax stood at 9990 ng/mL and the mean residence time (MRT) is 5.68 h. In data set [3] (PO 10 mg/kg), the Tmax came out at 2.5 h and the half-life was 3.26 h. In [3] (IV 5 mg/kg), this compound showed an AUC(0-t) of 41500 ng·h/mL, a Cmax of 21200 ng/mL, an MRT of 1.67 h and a clearance of 2.03 mL/min/kg. In addition, in [3] (IV 5 mg/kg), the half-life is 1.42 h. For the same compound, in data set [3], the bioavailability is 89%.

As for `O=C(Nc1ccncc1)Nc1ccc(-c2nc(N3CCOCC3)c3cccn3n2)cc1` [Example 18], the inhibition at 0.1 µM in data set [9] is -13%.

Take `O=C(Nc1ccc(-c2nc(N3CCOCC3)c3cccn3n2)cc1)NC1CC1` [Example 38]: the results for the inhibition at 0.1 µM in [1] and in data set [9] were 69% and -8%, respectively.

As for `CN(C)CCCNC(=O)c1ccc(NC(=O)Nc2ccc(-c3nc(N4CCOCC4)c4cccn4n3)cc2)cc1` [Example 47], the inhibition at 0.1 µM in data set [1] was determined as 89%. Further, the inhibition at 1 µM in data set [5] was 6%; in [6] it was 10%; in [7], 1%; in data set [8] it was -5%.

In the case of `C[C@@H]1COCCN1c1nc(-c2ccc(NC(=O)Nc3ccc(C(=O)N4CC[C@H](O)C4)cc3)cc2)nn2cccc12` [Example 89], in [2], the “metabolic stability in HLM” value is “metabolically stable”.

As to `C[C@@H]1COCCN1c1nc(-c2ccc(NC(=O)Nc3ccc(C(=O)N4CC[C@@H](O)C4)cc3)cc2)nn2cccc12` [Example 88], in data set [4], the IC50 is under 0.5 µM.

In the case of `CC(C)(O)c1ccc2c(N3CCOCC3)nc(-c3ccc(NC(=O)Nc4cccnc4)cc3)nn12` [Example 63], the inhibition at 0.1 µM in data set [1] came out at 71%. Further, the half-inhibitory concentration (IC50) in data set [4] was under 0.5 µM.

Take `OCCNC(=S)Nc1ccc(-c2nc(N3CCOCC3)c3cccn3n2)cc1` [Example 113]: the concentration for half-maximal inhibition (IC50) in data set [4] was under 0.5 µM.

Take `CN(C)C1CN(C(=O)c2ccc(NC(=O)Nc3ccc(-c4nc(N5CCOCC5)c5cccn5n4)cc3)cc2)C1` [Example 86]: the inhibition at 0.1 µM in data set [1] stood at 82%. The IC50 in [4] was under 0.5 µM.

In the case of `O=C(Nc1ccc(-c2nc(N3CCOCC3)c3cccn3n2)cc1)Nc1ccc(CO)nc1` [Example 96], the “metabolic stability in HLM” value in [2] was “metabolically stable”.
